Patent US9040713B2, “Methods of managing blood sugar levels and compositions related thereto” (EMORY UNIVERSITY, priority 2010, dated 2015)

Assays:
ob/ob mice = experiment: Plasma insulin in ob/ob mice; format: in vivo, mouse; conditions: single oral doses
Description: After a 12 h fasting, ob/ob mice were bled from the tail vein for a baseline (time −60 minutes) measurement. Then animals were orally administered 5 mg/kg compound in 0.5% methylcellulose. One hour after the drug administration, glucose (2 g/kg) was administrated intraperitoneally. Blood glucose levels were measured 0, 30, 60, 90, 120, and 180 min after administration of glucose. The blood was collected in tubes, kept at 4° C. overnight, and plasma was prepared by centrifugation (2,000 g, 20 min). Plasma insulin was measured by enzyme-linked immunosorbent assay with a rat insulin kit (Crystal Chem. Inc., USA). Insulin was quantified using the insulin standard curve.

C57B5L/6J mice = experiment: Hyperinsulinemic-euglycemic clamp; format: in vivo, mouse; conditions: 5 mg/kg oral 1 h before clamp
Description: (A) 4524-E7 provokes IR phosphorylation in various tissues of mice. Three-month-old C57BL/6J mice were starved for 12 h and then dosed with vehicle (0.5% methylcellulose) or 4524-E7 (20 mg/kg). Cell lysates from liver, muscle, and WAT were prepared at 3, 4, and 5 h after drug administration and analyzed by immunoblotting. (B) Basal and insulin-stimulated hepatic glucose production rates were measured by hyperinsulinemic-euglycemic clamp. […] (C) Hypoglycemic effect of 4524-E7 in C57BL/6J mice. C57BL/6J mice were starved for 12 h and then orally administrated with vehicle (0.5% methylcellulose) or 4524-E7 (5 mg/kg). Blood glucose was monitored at different time points as indicated (n=8, *: P<0.05, two-way ANOVA). (D) Hypoglycemic effect in db/db mice. db/db mice were starved for 12 h and then orally injected with vehicle (0.5% methylcellulose) or 4524-E7 (5 mg/kg). Blood glucose was monitored at different time points as indicated (n=5, *: P<0.05, two-way ANOVA). (E) Glucose tolerance test in ob/ob mice. The mice were starved for 12 hours and then orally administrated with vehicle or 4524-E7 (5 mg/kg). A bonus of glucose (2 gm/kg) was injected intraperitoneally 1 hour later. Blood glucose was then measured at 30 min intervals (n=13, *: P<0.05; **: P<0.01, two-way ANOVA).
C57B5L/6J mice were fasted for 12 h. […] In vivo hepatic glucose output was then determined by hyperinsulinemic-euglycemic clamp.

GST-EGFRTK = biological target: T1, GST-EGFRTK (Homo sapiens, UniProt P00533); experiment: In vitro kinase assay (histone H2B phosphorylation); format: biochemical; conditions: different concentrations of 4524-E7
T1 construct: histone phosphorylation by recombinant IGFR or EGFR tyrosine kinase
Description: (§1) Parental CHO cells were used as a negative control (Bottom panel). The fluorescence-labeled cells were analyzed on flow cytometry. (B) 4524-E7 protects IRTK from proteolysis. GST-IRTK was subjected to limited trypsin or chymotrypsin digestion in the presence of 4524-E7 (50 μM), ATPyS (5 μM) or both at 37° C. for 5 min. The reaction mixture was resolved by SDS-PAGE, followed by silver staining Cleaved fragments were asterisked. (C) 4524-E7 increases IRTK activity in vitro. Recombinant GST-IRTK, GST-IGFRTK, and GST-EGFRTK were incubated with different concentrations of 4524-E7 or 10 μM 2—NH2-NQ and the kinase activity was examined by monitoring the phosphorylation of histone H2B. (E) In vitro kinase activity of various IRTK/IGF-1R kinase hybrids. The GFP-tagged kinases were expressed in HEK293, immunoprecipitated and incubated with different concentrations of 4524-E7 as indicated. […] Expressions of the kinases were also verified (lower panel).
(§2) To evaluate if 4524-E7 directly binds to the IR kinase domain, a partial proteolysis assay was performed with recombinant IRTK domain using trypsin or chymotrypsin, which was used before to characterize the interaction between IR and its small molecular ligand DAQ B1. Recombinant GST-tagged IRTK with either DMSO, 50 μM 4524-E7 or ATP-γ-S, were incubated and followed by limited trypsin or chymotrypsin digestion. […]

GST-IGFRTK = biological target: T2, GST-IGFRTK (Homo sapiens, UniProt P08069); experiment: as above; format: biochemical; conditions: different concentrations of 4524-E7
T2 construct: histone phosphorylation by recombinant IGFR or EGFR tyrosine kinase
Description: as §1, §2

IR = IR (Homo sapiens, UniProt P06213); experiment: Cell-based ELISA of IR tyrosine phosphorylation in CHO-IR cells; parameters: expressed in transfected cells; host or cells: CHO (CHO-IR, gift from Dr. Nicholas Webster, UCSD)
Description: A cell-based screening assay was developed with Chinese hamster ovary cells stably transfected with IR (CHO-IR) by using an ELISA to determine the IR tyrosine phosphorylation. […] Other 1,4-Napthoquinones that are structurally related to 4524-E7 were evaluated.
CHO-IR cells were seeded in a 96-well plate at 15,000 cells per well in […] of 0.1% FBS medium with 0.1% FBS. […] Cells were lysed, and phosphorylated receptors were captured with pY20 immobilized on ELISA plates. Bound receptors were washed, then detected using an anti-IR beta antibody, followed by an horseradish peroxidase-conjugated secondary antibody and colorimetric detection with 3,3′,5,5′-tetramethylbenzidine.
A cell-based ELISA assay was developed with an IR stably transfected Chinese Hamster Ovary (CHO-IR) cell line. […] The cell lysates were subjected to the sandwich ELISA using immobilized anti-phosphotyrosine antibody and anti-IR antibody.

Sequence of IR (P06213 763-1382 limits assumed): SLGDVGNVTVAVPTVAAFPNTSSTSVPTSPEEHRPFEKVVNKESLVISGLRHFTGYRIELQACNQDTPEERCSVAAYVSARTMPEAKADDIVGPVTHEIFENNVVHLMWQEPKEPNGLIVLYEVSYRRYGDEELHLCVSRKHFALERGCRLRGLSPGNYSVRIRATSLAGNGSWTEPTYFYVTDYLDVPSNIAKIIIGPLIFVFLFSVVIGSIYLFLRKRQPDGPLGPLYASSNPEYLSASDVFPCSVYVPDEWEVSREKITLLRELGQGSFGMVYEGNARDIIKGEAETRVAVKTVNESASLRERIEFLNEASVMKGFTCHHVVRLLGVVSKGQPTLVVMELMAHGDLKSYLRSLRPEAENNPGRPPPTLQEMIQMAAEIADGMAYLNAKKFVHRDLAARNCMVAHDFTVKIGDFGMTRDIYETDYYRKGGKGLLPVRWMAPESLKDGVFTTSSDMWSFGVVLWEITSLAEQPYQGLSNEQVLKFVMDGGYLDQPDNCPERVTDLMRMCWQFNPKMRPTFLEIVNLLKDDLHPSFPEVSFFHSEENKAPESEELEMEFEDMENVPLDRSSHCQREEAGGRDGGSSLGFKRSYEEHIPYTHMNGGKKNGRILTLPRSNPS
Sequence of IR (P06213 28-758 limits assumed): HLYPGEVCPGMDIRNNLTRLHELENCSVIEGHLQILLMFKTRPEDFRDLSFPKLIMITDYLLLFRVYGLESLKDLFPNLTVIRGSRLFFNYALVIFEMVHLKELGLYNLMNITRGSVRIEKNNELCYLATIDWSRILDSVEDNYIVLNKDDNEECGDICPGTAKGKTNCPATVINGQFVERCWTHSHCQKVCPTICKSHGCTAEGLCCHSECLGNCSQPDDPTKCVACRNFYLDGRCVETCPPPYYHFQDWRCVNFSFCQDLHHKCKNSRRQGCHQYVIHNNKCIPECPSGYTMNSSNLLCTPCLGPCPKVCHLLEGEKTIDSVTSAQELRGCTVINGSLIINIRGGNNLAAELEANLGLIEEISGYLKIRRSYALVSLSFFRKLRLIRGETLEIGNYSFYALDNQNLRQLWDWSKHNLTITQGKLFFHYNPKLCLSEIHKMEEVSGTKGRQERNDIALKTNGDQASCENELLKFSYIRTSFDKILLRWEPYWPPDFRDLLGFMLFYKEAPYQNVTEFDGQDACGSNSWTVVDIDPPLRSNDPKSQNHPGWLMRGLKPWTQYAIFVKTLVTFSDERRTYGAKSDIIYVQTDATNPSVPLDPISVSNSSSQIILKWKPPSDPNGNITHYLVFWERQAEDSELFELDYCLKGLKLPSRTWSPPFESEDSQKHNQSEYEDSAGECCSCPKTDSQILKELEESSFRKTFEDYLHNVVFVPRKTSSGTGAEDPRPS
T1 sequence (P00533 712-979 limits assumed): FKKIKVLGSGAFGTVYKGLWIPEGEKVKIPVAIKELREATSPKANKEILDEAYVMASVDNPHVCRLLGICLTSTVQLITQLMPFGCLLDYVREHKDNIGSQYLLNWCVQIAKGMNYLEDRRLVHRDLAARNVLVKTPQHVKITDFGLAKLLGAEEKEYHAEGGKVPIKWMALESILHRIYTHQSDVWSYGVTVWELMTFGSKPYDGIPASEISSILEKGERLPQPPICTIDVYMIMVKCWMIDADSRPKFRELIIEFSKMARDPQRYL
T2 sequence (P08069 999-1274 limits assumed): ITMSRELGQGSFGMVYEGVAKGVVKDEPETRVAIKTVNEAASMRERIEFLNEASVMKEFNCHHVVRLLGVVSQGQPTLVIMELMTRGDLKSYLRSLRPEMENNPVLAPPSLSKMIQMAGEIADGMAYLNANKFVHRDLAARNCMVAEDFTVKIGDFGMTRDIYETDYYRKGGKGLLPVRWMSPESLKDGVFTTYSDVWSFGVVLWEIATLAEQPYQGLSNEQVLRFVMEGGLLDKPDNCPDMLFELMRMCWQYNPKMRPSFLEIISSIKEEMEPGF

EGFR tyrosine kinase activity (histone phosphorylation) (GST-EGFRTK)	IGFR tyrosine kinase activity (histone phosphorylation) (GST-IGFRTK)	IR phosphorylation (IR; 5 μM, 15 min, CHO-IR cells, ELISA)	concentration at which IR activation peaked (IR; 15 min, dose-response) [µM]	concentration at which IR activation started (IR; 15 min, dose-response) [µM]	time at which IR activation is triggered (IR; 4524-E7 5 μM or insulin 50 nM) [min]	time at which IR activation peaked (IR; 4524-E7 5 μM or insulin 50 nM) [min]	Compound	plasma insulin levels (ob/ob mice)	insulin-stimulated suppression of hepatic glucose output (C57B5L/6J mice)
–	–	–	–	–	–	–	CC(=O)Oc1ccc(OC(C)=O)c2c1C(=O)C(Cl)=C(Cl)C2=O [DDN, 5,8-diacetyloxy-2,3-dichloro-1,4-naphthoquinone]	no significant effect on plasma insulin levels	–
no effect	no effect	about 250 % of basal level	10	2.5	5	30	O=C1c2ccccc2C(=O)C2SC(Nc3ccc(Cl)cc3)=NC12 (stereo not drawn) [4524-E7, 2-((4-chlorophenyl)amino)naphtho[2,3-d]thiazole-4,9(3aH,9aH)-dione]	–	potentiated the insulin actions in suppressing hepatic glucose output
